# Results as given in patent US6326361A, “Gangliosides with immunosuppressive activity” (The Regents of the University of California, priority 1993, dated 2001).
# Tests used:
# [1] = system: normal human peripheral blood mononuclear cells (PBMC); assay type: cell-based; conditions: for IC90: tetanus toxoid, 2-3 separate experiments/ganglioside, read-out: ID90 (ganglioside concentration required to cause 90% inhibition of the lymphoproliferative response)
# [2] = system: normal human peripheral blood mononuclear cells (PBMC); assay: Inhibition of normal human lymphoproliferative responses to a panel of mitogens and soluble antigens (3H-thymidine uptake); assay type: cell-based; conditions: 0.5% plasma; for 3H-thymidine uptake: mean of triplicate cultures
# [3] = Candida Antigen, ganglioside 2.5 μM
# [4] = Candida Antigen, ganglioside 10 μM
# [5] = Diptheria Toxoid, ganglioside 2.5 μM
# [6] = Diptheria Toxoid, ganglioside 10 μM
# [7] = Tetanus Toxoid, ganglioside 10 μM
substance,measurement,setting,value
GD1b,IC90,[1],4.5 µM
GD1a,% inhibition,[2]; [3],45%
same,3H-thymidine uptake,[2]; [3],3.2 net cpm
same,% inhibition,[2]; [4],84%
same,3H-thymidine uptake,[2]; [4],0.9 net cpm
same,% inhibition,"[2]; ConA, ganglioside 2.5 μM",0%
same,3H-thymidine uptake,"[2]; ConA, ganglioside 2.5 μM",84.3 net cpm
same,% inhibition,"[2]; ConA, ganglioside 10 μM",37%
same,3H-thymidine uptake,"[2]; ConA, ganglioside 10 μM",49.0 net cpm
same,% inhibition,[2]; [5],60%
same,3H-thymidine uptake,[2]; [5],2.1 net cpm
same,% inhibition,[2]; [6],85%
same,3H-thymidine uptake,[2]; [6],0.8 net cpm
same,% inhibition,"[2]; PHA, ganglioside 2.5 μM",3%
same,3H-thymidine uptake,"[2]; PHA, ganglioside 2.5 μM",75.4 net cpm
same,% inhibition,"[2]; PHA, ganglioside 10 μM",11%
same,3H-thymidine uptake,"[2]; PHA, ganglioside 10 μM",69.2 net cpm
same,% inhibition,"[2]; PWM, ganglioside 2.5 μM",7%
same,3H-thymidine uptake,"[2]; PWM, ganglioside 2.5 μM",13.0 net cpm
same,% inhibition,"[2]; PWM, ganglioside 10 μM",68%
same,3H-thymidine uptake,"[2]; PWM, ganglioside 10 μM",4.5 net cpm
same,3H-thymidine uptake,"[2]; Tetanus Toxoid, ganglioside 2.5 μM",8.8 net cpm
same,% inhibition,[2]; [7],88%
same,3H-thymidine uptake,[2]; [7],3.2 net cpm
same,IC90,[1],2.3 µM
"galactosylceramide [asialo-GM4, reference compound]",IC50,"[1]; tetanus toxoid-induced lymphoproliferation, read-out: ID50 (the source's name)",13 µM
sialosylceramide [GM5],predicted immunosuppressive activity (in words),[1]; inferred from Table 2 trend,very active as an immunosuppressant
asialo-GM1 [reference compound],immunosuppressive activity (in words),[1],does not substantially alter activity
GT1b,IC90,[1],2.8 µM
